# According to ChEMBL document CHEMBL1130753, “Solid phase synthesis of a biased mini tetrapeptoid-library for the discovery of monodentate ITAM mimics as ZAP-70 inhibitors” (Bioorg Med Chem Lett, 1998):
# pIC50: −log10 of the molar value. Where a SMILES comes first, the peptide text is derived from it. [ ]: non-standard residue; d: D form. The star is where a group is joined. Gly(N-Bn(4-CH2PO3H2)) = O=C(O)CNCc1ccc(CP(=O)(O)O)cc1; N(3-phenylpropyl)Gly = O=C(O)CNCCCc1ccccc1; Hexanoyl = CCCCCC(=O)*; Nleu = CC(C)CNCC(=O)O; NEtG = CCNCC(=O)O
# Experiments:
# [1] = target: Tyrosine-protein kinase Lck (Homo sapiens) (UniProt P06239); test: Compound was tested for its antagonistic activity at 100 uM concentration against SH2 domain of LCK protein.; assay type: functional
# [2] = target: Growth factor receptor-bound protein 2 (Homo sapiens) (UniProt P62993); test: Antagonistic activity at 100 uM concentration against SH-2 domain of growth factor receptor binding protein (Grb2).
# [3] = target: T1, Tyrosine-protein kinase ZAP-70 (Homo sapiens, UniProt P43403); test: Inhibition of binding to human ZAP-70 SH2 domain
# T1 sequence (P43403 whole entry): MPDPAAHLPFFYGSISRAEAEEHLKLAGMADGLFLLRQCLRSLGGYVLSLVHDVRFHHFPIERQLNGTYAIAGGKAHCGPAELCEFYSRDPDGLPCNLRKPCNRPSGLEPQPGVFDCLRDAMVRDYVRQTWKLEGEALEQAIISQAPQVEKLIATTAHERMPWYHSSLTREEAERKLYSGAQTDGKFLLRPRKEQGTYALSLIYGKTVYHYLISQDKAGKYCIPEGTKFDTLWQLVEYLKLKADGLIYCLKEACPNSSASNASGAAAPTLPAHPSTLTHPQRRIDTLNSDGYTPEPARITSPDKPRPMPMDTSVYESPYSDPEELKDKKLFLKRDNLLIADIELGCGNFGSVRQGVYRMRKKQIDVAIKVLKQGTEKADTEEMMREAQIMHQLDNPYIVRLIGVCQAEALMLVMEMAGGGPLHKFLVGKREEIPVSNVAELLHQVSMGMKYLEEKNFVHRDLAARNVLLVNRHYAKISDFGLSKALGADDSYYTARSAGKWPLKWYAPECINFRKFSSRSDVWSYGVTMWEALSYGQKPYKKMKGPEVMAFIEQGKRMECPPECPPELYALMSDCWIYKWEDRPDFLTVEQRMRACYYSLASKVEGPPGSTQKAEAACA
# Sequence of Growth factor receptor-bound protein 2 (Homo sapiens) (P62993 whole entry, looked up, the tested form may be a part): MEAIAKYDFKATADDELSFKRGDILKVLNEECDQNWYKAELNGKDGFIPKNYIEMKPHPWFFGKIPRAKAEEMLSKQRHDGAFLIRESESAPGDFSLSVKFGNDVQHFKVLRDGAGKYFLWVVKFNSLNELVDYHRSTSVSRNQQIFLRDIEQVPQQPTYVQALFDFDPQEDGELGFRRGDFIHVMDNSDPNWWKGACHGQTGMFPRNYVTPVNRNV
# Sequence of Tyrosine-protein kinase Lck (Homo sapiens) (P06239 2-509 limits assumed): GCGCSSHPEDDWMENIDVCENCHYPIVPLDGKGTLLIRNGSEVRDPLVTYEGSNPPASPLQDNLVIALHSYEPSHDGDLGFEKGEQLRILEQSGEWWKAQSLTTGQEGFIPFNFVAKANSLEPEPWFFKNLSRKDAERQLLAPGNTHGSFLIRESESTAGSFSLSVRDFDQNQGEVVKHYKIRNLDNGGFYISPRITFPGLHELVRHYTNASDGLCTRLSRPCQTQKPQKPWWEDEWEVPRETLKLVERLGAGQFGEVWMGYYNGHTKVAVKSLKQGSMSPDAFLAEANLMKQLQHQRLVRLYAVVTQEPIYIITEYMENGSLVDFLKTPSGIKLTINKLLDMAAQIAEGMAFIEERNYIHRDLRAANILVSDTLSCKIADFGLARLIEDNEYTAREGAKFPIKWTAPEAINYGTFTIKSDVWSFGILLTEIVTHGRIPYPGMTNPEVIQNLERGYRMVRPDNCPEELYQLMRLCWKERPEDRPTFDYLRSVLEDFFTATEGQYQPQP
SMILES,inhibition [1] [%],inhibition [2] [%],pIC50 [3]
CCCCCC(=O)N(CC(=O)N(CC)CC(=O)N(CC(=O)N(CCCc1ccccc1)CC(N)=O)CC(C)C)Cc1ccc(CP(=O)(O)O)cc1 (Hexanoyl-[Gly(N-Bn(4-CH2PO3H2))][NEtG][Nleu][N(3-phenylpropyl)Gly]-NH2),15,2,
CCCCCC(=O)N(CC(=O)N(CC(=O)N(CCCc1ccccc1)CC(=O)N(CCCc1ccccc1)CC(N)=O)CC(C)C)Cc1ccc(CP(=O)(O)O)cc1 (Hexanoyl-[Gly(N-Bn(4-CH2PO3H2))][Nleu][N(3-phenylpropyl)Gly][N(3-phenylpropyl)Gly]-NH2),3,0,
CCCCCC(=O)N(CC(=O)N(CC(=O)N(CC)CC(=O)N(CC)CC(N)=O)CC(C)C)Cc1ccc(CP(=O)(O)O)cc1 (Hexanoyl-[Gly(N-Bn(4-CH2PO3H2))][Nleu][NEtG][NEtG]-NH2),61,15,
CCCCCC(=O)N(CC(=O)N(CCCc1ccccc1)CC(=O)N(CC(=O)N(CCCc1ccccc1)CC(N)=O)CC(C)C)Cc1ccc(CP(=O)(O)O)cc1 (Hexanoyl-[Gly(N-Bn(4-CH2PO3H2))][N(3-phenylpropyl)Gly][Nleu][N(3-phenylpropyl)Gly]-NH2),32,32,< 4.00
CCCCCC(=O)N(CC(=O)N(CCCc1ccccc1)CC(=O)N(CCCc1ccccc1)CC(=O)N(CC(N)=O)CC(C)C)Cc1ccc(CP(=O)(O)O)cc1 (Hexanoyl-[Gly(N-Bn(4-CH2PO3H2))][N(3-phenylpropyl)Gly][N(3-phenylpropyl)Gly][Nleu]-NH2),6,3,
CCCCCC(=O)N(CC(=O)N(CC)CC(=O)N(CC(=O)N(CC(N)=O)CC(C)C)CC(C)C)Cc1ccc(CP(=O)(O)O)cc1 (Hexanoyl-[Gly(N-Bn(4-CH2PO3H2))][NEtG][Nleu][Nleu]-NH2),6,8,
CCCCCC(=O)N(CC(=O)N(CCCc1ccccc1)CC(=O)N(CCCc1ccccc1)CC(=O)N(CC)CC(N)=O)Cc1ccc(CP(=O)(O)O)cc1 (Hexanoyl-[Gly(N-Bn(4-CH2PO3H2))][N(3-phenylpropyl)Gly][N(3-phenylpropyl)Gly][NEtG]-NH2),4,4,
CCCCCC(=O)N(CC(=O)N(CC)CC(=O)N(CC)CC(=O)N(CCCc1ccccc1)CC(N)=O)Cc1ccc(CP(=O)(O)O)cc1 (Hexanoyl-[Gly(N-Bn(4-CH2PO3H2))][NEtG][NEtG][N(3-phenylpropyl)Gly]-NH2),1,4,
CCCCCC(=O)N(CC(=O)N(CC)CC(=O)N(CCCc1ccccc1)CC(=O)N(CCCc1ccccc1)CC(N)=O)Cc1ccc(CP(=O)(O)O)cc1 (Hexanoyl-[Gly(N-Bn(4-CH2PO3H2))][NEtG][N(3-phenylpropyl)Gly][N(3-phenylpropyl)Gly]-NH2),0,2,
CCCCCC(=O)N(CC(=O)N(CC(=O)N(CC(=O)N(CCCc1ccccc1)CC(N)=O)CC(C)C)CC(C)C)Cc1ccc(CP(=O)(O)O)cc1 (Hexanoyl-[Gly(N-Bn(4-CH2PO3H2))][Nleu][Nleu][N(3-phenylpropyl)Gly]-NH2),1,5,
CCCCCC(=O)N(CC(=O)N(CCCc1ccccc1)CC(=O)N(CC(=O)N(CC)CC(N)=O)CC(C)C)Cc1ccc(CP(=O)(O)O)cc1 (Hexanoyl-[Gly(N-Bn(4-CH2PO3H2))][N(3-phenylpropyl)Gly][Nleu][NEtG]-NH2),5,6,
CCCCCC(=O)N(CC(=O)N(CC)CC(=O)N(CCCc1ccccc1)CC(=O)N(CC)CC(N)=O)Cc1ccc(CP(=O)(O)O)cc1 (Hexanoyl-[Gly(N-Bn(4-CH2PO3H2))][NEtG][N(3-phenylpropyl)Gly][NEtG]-NH2),7,8,
CCCCCC(=O)N(CC(=O)N(CC(=O)N(CCCc1ccccc1)CC(=O)N(CC(N)=O)CC(C)C)CC(C)C)Cc1ccc(CP(=O)(O)O)cc1 (Hexanoyl-[Gly(N-Bn(4-CH2PO3H2))][Nleu][N(3-phenylpropyl)Gly][Nleu]-NH2),1,3,
CCCCCC(=O)N(CC(=O)N(CCCc1ccccc1)CC(=O)N(CC)CC(=O)N(CC(N)=O)CC(C)C)Cc1ccc(CP(=O)(O)O)cc1 (Hexanoyl-[Gly(N-Bn(4-CH2PO3H2))][N(3-phenylpropyl)Gly][NEtG][Nleu]-NH2),7,3,
CCCCCC(=O)N(CC(=O)N(CCCc1ccccc1)CC(=O)N(CC)CC(=O)N(CC)CC(N)=O)Cc1ccc(CP(=O)(O)O)cc1 (Hexanoyl-[Gly(N-Bn(4-CH2PO3H2))][N(3-phenylpropyl)Gly][NEtG][NEtG]-NH2),4,5,
CCCCCC(=O)N(CC(=O)N(CCCc1ccccc1)CC(=O)N(CC)CC(=O)N(CCCc1ccccc1)CC(N)=O)Cc1ccc(CP(=O)(O)O)cc1 (Hexanoyl-[Gly(N-Bn(4-CH2PO3H2))][N(3-phenylpropyl)Gly][NEtG][N(3-phenylpropyl)Gly]-NH2),4,20,< 4.00
CCCCCC(=O)N(CC(=O)N(CC(=O)N(CCCc1ccccc1)CC(=O)N(CC)CC(N)=O)CC(C)C)Cc1ccc(CP(=O)(O)O)cc1 (Hexanoyl-[Gly(N-Bn(4-CH2PO3H2))][Nleu][N(3-phenylpropyl)Gly][NEtG]-NH2),4,5,
CCCCCC(=O)N(CC(=O)N(CC)CC(=O)N(CC)CC(=O)N(CC(N)=O)CC(C)C)Cc1ccc(CP(=O)(O)O)cc1 (Hexanoyl-[Gly(N-Bn(4-CH2PO3H2))][NEtG][NEtG][Nleu]-NH2),2,2,
CCCCCC(=O)N(CC(=O)N(CC)CC(=O)N(CCCc1ccccc1)CC(=O)N(CC(N)=O)CC(C)C)Cc1ccc(CP(=O)(O)O)cc1 (Hexanoyl-[Gly(N-Bn(4-CH2PO3H2))][NEtG][N(3-phenylpropyl)Gly][Nleu]-NH2),3,4,
CCCCCC(=O)N(CC(=O)N(CC(=O)N(CC(=O)N(CC(N)=O)CC(C)C)CC(C)C)CC(C)C)Cc1ccc(CP(=O)(O)O)cc1 (Hexanoyl-[Gly(N-Bn(4-CH2PO3H2))][Nleu][Nleu][Nleu]-NH2),3,6,
CCCCCC(=O)N(CC(=O)N(CCCc1ccccc1)CC(=O)N(CCCc1ccccc1)CC(=O)N(CCCc1ccccc1)CC(N)=O)Cc1ccc(CP(=O)(O)O)cc1 (Hexanoyl-[Gly(N-Bn(4-CH2PO3H2))][N(3-phenylpropyl)Gly][N(3-phenylpropyl)Gly][N(3-phenylpropyl)Gly]-NH2),4,5,
CCCCCC(=O)N(CC(=O)N(CC(=O)N(CC(=O)N(CC)CC(N)=O)CC(C)C)CC(C)C)Cc1ccc(CP(=O)(O)O)cc1 (Hexanoyl-[Gly(N-Bn(4-CH2PO3H2))][Nleu][Nleu][NEtG]-NH2),1,4,
CCCCCC(=O)N(CC(=O)N(CC)CC(=O)N(CC)CC(=O)N(CC)CC(N)=O)Cc1ccc(CP(=O)(O)O)cc1 (Hexanoyl-[Gly(N-Bn(4-CH2PO3H2))][NEtG][NEtG][NEtG]-NH2),4,6,
CCCCCC(=O)N(CC(=O)N(CCCc1ccccc1)CC(=O)N(CC(=O)N(CC(N)=O)CC(C)C)CC(C)C)Cc1ccc(CP(=O)(O)O)cc1 (Hexanoyl-[Gly(N-Bn(4-CH2PO3H2))][N(3-phenylpropyl)Gly][Nleu][Nleu]-NH2),16,0,
CCCCCC(=O)N(CC(=O)N(CC)CC(=O)N(CC(=O)N(CC)CC(N)=O)CC(C)C)Cc1ccc(CP(=O)(O)O)cc1 (Hexanoyl-[Gly(N-Bn(4-CH2PO3H2))][NEtG][Nleu][NEtG]-NH2),0,2,
CCCCCC(=O)N(CC(=O)N(CC(=O)N(CC)CC(=O)N(CC(N)=O)CC(C)C)CC(C)C)Cc1ccc(CP(=O)(O)O)cc1 (Hexanoyl-[Gly(N-Bn(4-CH2PO3H2))][Nleu][NEtG][Nleu]-NH2),9,30,
CCCCCC(=O)N(CC(=O)N(CC(=O)N(CC)CC(=O)N(CCCc1ccccc1)CC(N)=O)CC(C)C)Cc1ccc(CP(=O)(O)O)cc1 (Hexanoyl-[Gly(N-Bn(4-CH2PO3H2))][Nleu][NEtG][N(3-phenylpropyl)Gly]-NH2),10,2,
